Data published in PMC4393269, “Carvacrol Codrugs: A New Approach in the Antimicrobial Plan” (PLoS ONE, 2015).
≈ marks a conversion by molar mass, not a printed value.

How the values were obtained:
Format in all cases: cell-based
E. coli ATCC 8739 [1] = test: Broth microdilution MIC/MBC on planktonic cells; conditions: Escherichia coli, ATCC8739
Description: (§1) Two Gram-positive (S. aureus ATCC 29213 and S. epidermidis ATCC 35984) and two Gram-negative (E. coli ATCC 8739 and P. aeruginosa ATCC 9027) strains, and one fungal strain (C. albicans ATCC 10231) were used for the detection of antibacterial activity of carvacrol, NAC, Ac-Cys(Allyl)-OH, and carvacrol codrugs 1–10. All tested compounds were dissolved in 20% DMSO to prepare the stock solution (100 mg/mL). The final concentration of DMSO in each well appeared to be not toxic for all studied microorganisms, as confirmed by the solvent control test included in the study.
(§2) The effects of carvacrol codrugs 1–10 and reference compounds on planktonic cells were evaluated by Minimum Inhibitory Concentration (MIC) and Minimum Bactericidal Concentration (MBC) determination using the broth microdilution method according to EUCAST guidelines. Bacterial suspensions, grown in Mueller–Hinton Broth (MHB) at logarithmic phase, were incubated on microtiter plates at a concentration of 5 x 10^5 CFU/mL, with several dilutions (0.07–40 mg/mL) for 24 h at 37°C. The MIC was defined as the lowest concentration of substances giving a complete inhibition of visible growth in comparison with a control well, and the MBC was determined as the lowest concentration at which no bacterial growth occurred on Mueller–Hinton Agar plates.
(§3) Data were obtained from at least three independent experiments performed in duplicate. The susceptibility of the bacterial strains against ciprofloxacin was used as an internal standard during MIC determinations.

P. aeruginosa ATCC 9027 [2] = test: Broth microdilution MIC/MBC on planktonic cells; conditions: Pseudomonas aeruginosa, ATCC9027
Description: as §1, §2, §3

S. aureus ATCC 29213 [3] = test: Broth microdilution MIC/MBC on planktonic cells; conditions: Staphylococcus aureus, ATCC29213
Description: as §1, §2, §3

[4] = system: S. epidermidis ATCC 35984; test: Broth microdilution MIC/MBC on planktonic cells; conditions: Staphylococcus epidermidis, ATCC35984
Description: as §1, §2, §3

C. albicans ATCC 10231 [5] = test: Broth microdilution MIC/MFC; conditions: Candida albicans, ATCC10231
Description: as §1
The MIC detection of C. albicans ATCC 10231 was performed using the broth microdilution method according to EUCAST guidelines in RPMI 1640 plus 2% glucose with a final inoculum of 1–5 x 10^5 CFU/mL for 24–48 h at 37°C. The Minimum Fungicidal Concentration (MFC) was determined as the lowest concentration of substances at which no fungal growth occurred on Sabouraud agar plates.
as §3

[6] = system: Gram positive and Gram negative tested bacteria; test: Broth microdilution MIC/MBC, range over the bacterial panel; conditions: bacterial strains of Table 1
Description: as §1
as §2, with “plates. […]” for “plates.”

C. albicans ATCC 10231 [7] = test: Antibiofilm assay on established biofilm (BIC/BEC)
Description: (§4) The efficacy on established biofilm was evaluated by determining Biofilm Inhibitory Concentration (BIC) and Biofilm Eradication Concentration (BEC) according to the method described by Johnson et al. with some modifications. Bacterial suspensions, grown in Tryptic soy broth supplemented with 0.5% (v/v) glucose at logarithmic phase, as well as C. albicans grown in RPMI 1640 plus 2% glucose, were incubated on flat-bottomed microtiter plates at a concentration of 5 x 10^5 CFU/mL. After 24 h of incubation at 37°C, the planktonic cells were gently removed and wells were washed with sterile phosphate-buffered saline solution (PBS) pH 7.3 and filled with carvacrol, carvacrol codrug 4, Ac-Cys(Allyl)-OH with dilutions ranging from the MIC values to a maximum concentration of 50 mg/mL. The OD600 was measured at time 0 and after incubation for 24 h at 37°C. The BIC values were determined as the lowest concentrations where no growth occurred in the supernatant fluid, confirmed by no increase in optical density compared with the initial reading. The BEC values were determined as the lowest concentrations at which no bacterial growth occurred on Tryptic soy agar for bacteria and on Sabouraud agar for C. albicans. Data were obtained from at least three independent experiments performed in duplicate.

E. coli ATCC 8739 [8] = test: Antibiofilm assay on established biofilm (BIC/BEC)
Description: as §4

P. aeruginosa ATCC 9027 [9] = test: Antibiofilm assay on established biofilm (BIC/BEC)
Description: as §4

S. aureus ATCC 29213 [10] = test: Antibiofilm assay on established biofilm (BIC/BEC); conditions: S. aureus ATCC 29213 established biofilm
Description: as §4

[11] = system: S. epidermidis ATCC 35984; test: Antibiofilm assay on established biofilm (BIC/BEC)
Description: as §4

In the case of C=CCSC[C@H](NC(C)=O)C(=O)O [Ac-Cys(Allyl)-OH, N-Ac-Cys(Allyl)-OH], the MIC (E. coli ATCC 8739 [1]; E. coli ATCC 8739, 24 h at 37°C, read-out: MIC) is reported as 2500 µg/mL (≈ 12.3 mM), the MBC (E. coli ATCC 8739 [1]; E. coli ATCC 8739, read-out: MBC) is reported as 2500 µg/mL (≈ 12.3 mM) and the MIC (P. aeruginosa ATCC 9027 [2]; P. aeruginosa ATCC 9027, 24 h at 37°C, read-out: MIC) is reported as 10000 µg/mL (≈ 49.2 mM). It also gave an MBC (P. aeruginosa ATCC 9027 [2]; P. aeruginosa ATCC 9027, read-out: MBC) of 10000 µg/mL (≈ 49.2 mM), an MIC (S. aureus ATCC 29213 [3]; S. aureus ATCC 29213, 24 h at 37°C, read-out: MIC) of 5000 µg/mL (≈ 24.6 mM) and an MBC (S. aureus ATCC 29213 [3]; S. aureus ATCC 29213, read-out: MBC) of 5000 µg/mL (≈ 24.6 mM). For the same compound, the MIC ([4]; S. epidermidis ATCC 35984, 24 h at 37°C, read-out: MIC) was 5000 µg/mL (≈ 24.6 mM), the MBC ([4]; S. epidermidis ATCC 35984, read-out: MBC) was 5000 µg/mL (≈ 24.6 mM) and the MIC (C. albicans ATCC 10231 [5]; C. albicans ATCC 10231, 24–48 h at 37°C, read-out: MIC) was 2500 µg/mL (≈ 12.3 mM). The MFC (C. albicans ATCC 10231 [5]; C. albicans ATCC 10231, read-out: MFC) was 2500 µg/mL (≈ 12.3 mM), the “MIC values (range over strains)” value [6] was 2500 to 10000 µg/mL and the “BEC as multiple of MIC” value (C. albicans ATCC 10231 [7]; C. albicans ATCC 10231) was 2MIC. For the same compound, the “BIC as multiple of MIC” value (C. albicans ATCC 10231 [7]; C. albicans ATCC 10231) was 2MIC, the BEC (C. albicans ATCC 10231 [7]; C. albicans ATCC 10231 established biofilm) was 5 mg/mL and the BIC (C. albicans ATCC 10231 [7]; C. albicans ATCC 10231 established biofilm, 24 h) was 5 mg/mL. For the same compound, the “BEC as multiple of MIC” value (E. coli ATCC 8739 [8]; E. coli ATCC 8739) was 8MIC, the “BIC as multiple of MIC” value (E. coli ATCC 8739 [8]; E. coli ATCC 8739) was 2MIC and the BEC (E. coli ATCC 8739 [8]; E. coli ATCC 8739 established biofilm) was 20 mg/mL. For the same compound, the BIC (E. coli ATCC 8739 [8]; E. coli ATCC 8739 established biofilm, 24 h) was 5 mg/mL, the “BEC as multiple of MIC” value (P. aeruginosa ATCC 9027 [9]; P. aeruginosa ATCC 9027) was 2MIC and the BEC (P. aeruginosa ATCC 9027 [9]; P. aeruginosa ATCC 9027 established biofilm) was 20 mg/mL. It also gave a BIC (P. aeruginosa ATCC 9027 [9]; P. aeruginosa ATCC 9027 established biofilm, 24 h) of 10 mg/mL, a BEC (S. aureus ATCC 29213 [10]) of 20 mg/mL and a BIC (S. aureus ATCC 29213 [10]; 24 h) of 10 mg/mL. For the same compound, the “BEC as multiple of MIC” value ([11]; S. epidermidis ATCC 35984) was 4MIC, the “BIC as multiple of MIC” value ([11]; S. epidermidis ATCC 35984) was 4MIC and the BEC ([11]; S. epidermidis ATCC 35984 established biofilm) was 20 mg/mL. For the same compound, the BIC ([11]; S. epidermidis ATCC 35984 established biofilm, 24 h) was 20 mg/mL.
